The record followed here is PMC9184620, “TAS1553, a small molecule subunit interaction inhibitor of ribonucleotide reductase, exhibits antitumor activity by causing DNA replication stress” (Communications Biology, 2022).

Experiment [1] concerns 68 proteins (ion channels, transporters, nuclear receptors, G protein-coupled receptors). Description: Eurofins LeadProfilingScreen panel assay. It is filed as binding. The following applies: 10 μmol/L; significant defined as >50% inhibition for each target protein. On the procedure:
The binding affinity of TAS1553 to the R1 subunit was investigated using surface plasmon resonance (SPR) binding analysis. […] Next, we evaluated the inhibitory effect of TAS1553 against the enzymatic activity of RNR, consisting of R1 and R2 recombinant proteins. RNR activity was determined by its ability to reduce cytidine diphosphate (CDP) to deoxycytidine diphosphate (dCDP), based on a previous report. […] In addition to the inhibitory effect on RNR, TAS1553 was evaluated in a Eurofins LeadProfilingScreen panel assay including 68 proteins, such as ion channels, transporters, nuclear receptors, and G protein-coupled receptors, to examine its potential adverse activity.

For a further experiment, the system named is HCC38 cells. Kind of experiment: Cell proliferation assay (CellTiter-Glo), HCC38. The class given is cell-based. The following applies: Homo sapiens, 72 h; HCC38, 3 days exposure. On the procedure:
Next, we evaluated both concentration-dependent and time-dependent effects of TAS1553 on the dATP pool in HCC38 and MV-4-11 cell lines using absolute quantification. After 2 h of TAS1553 exposure, there was a concentration-dependent reduction of intracellular dATP pool in both cell lines (Fig. 2c). Furthermore, the intracellular dATP pool was reduced within 30 minutes when treated with TAS1553 at 1 or 10 µmol/L in both cell lines (Fig. 2d), consistent with its inhibitory effect on the protein-protein interaction (Fig. 2a).
Cell proliferation assay was performed as reported previously. Briefly, cells were plated and incubated for 1 day, followed by 3 days of exposure to the compound. After compound exposure, viable cells were detected by using the CellTiter-Glo luminescent cell viability assay (Promega). GI50 values were calculated using the SAS software package. The experiment was performed in triplicates.
Background: Cellular ATP, detected with luciferase, serves as a proxy for viable cell number.

Another experiment deals with MLL-AF9 AML cells. Description: Survival in systemic AML model (mice bone marrow cells harboring human MLL-AF9 fusion gene). The following applies: 100 mg/kg daily. It is filed as in vivo, mouse. On the procedure: Next, we evaluated the antitumor activity of a high-dose administration of TAS1553 and cytarabine in rats bearing MV-4-11 xenografts. […] The rats were treated with cytarabine for 5 days at 16 and 32 mg/kg. […] In addition to the hematologic tumor, we evaluated the antitumor activity of TAS1553 in mice implanted with HCC38 cell line as a solid tumor model. […] Finally, TAS1553 was evaluated for its survival benefit in a mouse model. To achieve this, we established mice bone marrow cells harboring the human MLL-AF9 fusion gene, which is known as a driver gene for AML in humans as well as mice[48]. Mice were transplanted with the cells through the tail vein and the treatment with TAS1553 was started 11 days post-implantation.

In the next experiment the test system is MV-4-11 xenograft tumors. Kind of experiment: Intratumoral dATP and ATP pool in MV-4-11 xenograft tumors after single oral dose. The class given is in vivo, rat. As to conditions: 1 and 2 h post-administration, 50 mg/kg and 200 mg/kg single oral dose. On the procedure: To determine whether TAS1553 achieved RNR inhibition in an in vivo model, we examined the effect of a single dose of orally administered TAS1553 on intratumoral dATP pool, DNA replication stress, and apoptosis in rats that were subcutaneously implanted with a xenograft of MV-4-11 cell line. […] The decline in the intratumoral dATP pool recovered 4 h after the administration of both doses. We also evaluated the DNA replication stress and apoptosis induction in tumors following TAS1553 administration. Consistent with the modulation of the dATP pool, the single administration of TAS1553 (50 mg/kg or more) caused the phosphorylation of Chk1 at Ser345 1 and 2 h post-administration. Furthermore, TAS1553 administration also led to induction in cleaved PARP and cleaved caspase-3 levels, following to Chk1 phosphorylation (Fig. 4d).
Cells were plated, cultured for 1 day, treated with the compound, and harvested. The collected cells were homogenized with 0.42 mol/L perchloric acid, including IS-dATP at 0.6 μmol/L and IS-ATP at 2.4 μmol/L as internal standards for dATP and ATP, respectively. At each time point, xenograft tumors were excised after single dosing of the test compound. The tissues were homogenized with 0.42 mol/L perchloric acid, including IS-dATP at 3 μmol/L as an internal standard for dATP and ATP. […] The aqueous layer collected after vortex and centrifugation was analyzed by LC-MS/MS. […]

For `Cc1ccc(F)c([C@@H](C)[C@H](NS(=O)(=O)c2ccc(Cl)cc2C(N)=O)c2n[nH]c(=O)o2)c1C` [TAS1553, 5-chloro-2-{N-[(1S,2R)-2-(6-fluoro-2,3-dimethylphenyl)-1-(5-oxo-4,5-dihydro-1,3,4-oxadiazol-2-yl)propyl]sulfamoyl}benzamide], the “inhibition in 68-protein panel” value in experiment [1] is listed as “no significant inhibition”. Besides, the GI50 – broadly, the concentration giving 50% growth inhibition – in the experiment on HCC38 cells was 352 nM. For the same compound, in the experiment on MLL-AF9 AML cells (start 11 days post-implantation), the median survival time was found to be 75.5 days. Also, the “increase in the life span” value in the experiment on MLL-AF9 AML cells (versus control) came out at 34.8%. Further, the “effect on intratumoral dATP pool” value with MV-4-11 xenograft tumors is on record as “significant reduction”.
